Results as given in patent EP0837071A1, “Tripeptide antithrombotic agents” (ELI LILLY AND COMPANY, priority 1990, dated 1992).
Read-outs that look alike come from different tables or passages of the source.

Columns and labels:
thrombin = target: T1, thrombin (Bos taurus, UniProt P00735); test: Inhibition of thrombin amidase activity (chromogenic substrate N-benzoyl-D-phenylalanyl-L-valyl-L-arginyl-p-nitroanilide); format: biochemical
T1 construct: purchased
Protocol: The data in the table were obtained in an assay in which thrombin hydrolyzes the chromogenic substrate, N-benzoyl-D-phenylalanyl-L-valyl-L-arginyl-p-nitroanilide.
The assay was carried out in 50 µl buffer (0.03M Tris, 0.15M NaCl, pH 7.4) with 25 µl of thrombin solution (0.21 mg/ml of thrombostat powder in 0.06 M Tris, 0.3M NaCl, pH 7.4) and 150 µl of an aqueous solution of the chromogenic substrate at a concentration of 0.25 mg/ml. Solutions of test compound (25 µl) at various concentrations were added. […] Standard curves were constructed by plotting free thrombin concentration against hydrolysis rate. […] The amount of free inhibitor in each assay was calculated by subtracting the number of moles of bound thrombin from the number of moles of added inhibitor (test compound).
The Kass value is the hypothetical equilibrium constant for the reaction between thrombin and the test compouhnd (I). Thrombin + I ⇄ Thrombin - I [formula] Kass =([Thrombin I])/([ (Thrombin) x (I) ]) [formula]
Kass was calculated for a range of concentrations of test compounds and the mean value is reported in units of liter per mole.

plasma [1] = test: Plasma coagulation assay: prothrombin time; format: biochemical; details: thromboplastin (Dade)
Protocol: (§1) The numerical values in the table are the concentrations of the test compounds (ng/ml) required to prolong coagulation by 2-fold in the three tests. The thrombin time evaluation was carried out in plasma and separately determined in a buffer system at […].
(§2) The data presented in Table 2 were obtained using a CoaScreener instrument from Tecan, Inc. in the assay protocols listed below. Prothrombin Time: 50 µl plasma 50 µl saline 7 µl test solution 50 µl thromboplastin (Dade) Thrombin Time: 50 µl plasma 50 µl saline 7 µl test compound 50 µl bovine thrombin (2 NIH unit/ml) In the Thrombin Time determined in pH 7.4 buffer fibrinogen was used instead of plasma. APTT: 50 µl plasma 50 µl Actin (Dade) 7 µl test solution 50 µl CaCl2 (0.01M).

plasma [2] = test: Plasma coagulation assay: activated partial thromboplastin time (APTT); format: biochemical; details: Actin (Dade), CaCl2
Protocol: as §1, §2

bovine thrombin [3] = target: T2, bovine thrombin (Bos taurus, UniProt P00735); test: Plasma coagulation assay: thrombin time; format: biochemical; details: plasma, bovine thrombin (2 NIH unit/ml)
T2 construct: 50 µl bovine thrombin (2 NIH unit/ml)
Protocol: as §1, §2

bovine thrombin [4] = target: T2, bovine thrombin; test: Thrombin time in buffer (fibrinogen instead of plasma); format: biochemical; details: buffer pH 7.5, fibrinogen instead of plasma
Protocol: as §1, §2

[5] = test system: Arterial Thrombosis in the Rat; test: FeCl3-induced arterial thrombosis in the carotid artery of the rat; format: in vivo; details: infusion from 15 min before to 60 min after FeCl3 application, NA = Not active at 4 mg/kg/h or at 7 mg/kg/h, the highest doses tested
Protocol: The antithrombotic activity of representative compounds of the invention was determined in in vivo tests carried out in the rat. The test employed induced arterial thrombosis in the carotid artery of the rat and measured the infusion dose of test compound required to maintain blood flow for fifty minutes past the time of occlusion. The test was performed as follows.
Arterial thrombosis was induced in the rat by injury of the carotid artery. Topical application of a ferric chloride solution was used to injure the vessel. […] Animals were laid on a water blanket in which the circulated water was maintained at 37° C. The carotid artery was approached through a midline cervical incision. Careful blunt dissection was used to expose and isolate the vessel from the carotid sheath. A silk suture was pulled underneath the artery to lift the vessel to provide clearance to insert a thermocouple underneath it. […] The discs were cut to equal size using sharpened stainless steel tubing (3 mm i.d.) chucked in a drill press. A saturated disc was placed on each carotid artery above the thermocouple. The time between FeCl3 application and the time at which temperature decreased abruptly was recorded as time to occlusion (TTO) of the vessel. The average time required for both vessels to occlude was used to represent TTO for each animal.
Test compounds were dissolved in isotonic saline. A syringe pump was used to infuse drug solutions starting 15 min before FeCl3 application and continuing for 60 min after FeCl3 application. Dose-response curves were plotted to determine the relationship between the log10 of the infused doses and the TTO of the injured arteries.
The association between vessel occlusion and the abrupt temperature decrease was established by simultaneously recording the temperature and blood flow on the same recorder. A pulsed Doppler flow probe was placed around the carotid artery proximal to the thermocouple. […] Results were reported as percent change from initial baseline values (6 min before occlusion). The time at which vessel temperature decreased rapidly was arbitrarily established as zero and pre- and post-occlusion temperature and flow values were referenced from that point.

Compound	Kd (thrombin)	Prothrombin Time: concentration of test compounds required to prolong coagulation by 2-fold (plasma [1])	APTT: concentration of test compounds required to prolong coagulation by 2-fold (plasma [2])	Thrombin Time: concentration of test compounds required to prolong coagulation by 2-fold (bovine thrombin [3])	Buffer (pH 7.5) Thrombin Time: concentration of test compounds required to prolong coagulation by 2-fold (bovine thrombin [4])	ED50 (infusion dose required to maintain blood flow for 50 min) [5]	Kd (thrombin; apparent equilibrium (association) constant, mean over a range of concentrations, pH 7.4, acetate salts unless indicated otherwise, read-out: Thrombin Amidase Kass (converted))
CC(C)(C)OC(=O)N[C@@H](C(=O)N1CCC[C@H]1C(=O)N[C@H](C=O)CCCNC(=N)N)c1cccc2ccccc12 [N-Boc-D-1-naphthylglycyl, N-Boc-D-1-naphthylglycyl-Pro-Arg-H diacetate]	19.2 nM	1225 ng/mL	3100 ng/mL	230 ng/mL	105 ng/ml	6.4 mg/kg/h	
CC(C)(C)OC(=O)NC(C(=O)N1CCC[C@H]1C(=O)N[C@H](C=O)CCCNC(=N)N)c1cccc2ccccc12 (mixture of isomers) [N-Boc-DL-1-naphthylglycyl]		1136 ng/mL	2272 ng/mL	320 ng/mL	112 ng/ml	5.5 mg/kg/h	55.2 nM
